The values that follow come from patent publication US20120058541A1, “ENGINEERING RESISTANCE TO ALIPHATIC ALCOHOLS” (BUTAMAX(TM) ADVANCED BIOFUELS LLC, priority 2009, published 2012).

The assay relates to L. plantarum PN0512.

SMILES strings stand for the structures.

Procedure: IC50 values were determined in shake flasks as follows. Duplicate glass test tubes containing 5 ml MRS medium plus 10 μg/ml chloramphenicol (MRS-Cm) were each inoculated with a single colony and grown for 24 h at 30° C. in a rollerdrum. 500 μl of each of these cultures were used to inoculate 25 ml MRS-Cm, which was grown for 16 h at 30° C. with shaking at 110 rpm. […] Cultures were grown at 30° C. with shaking at 110 rpm, and growth was measured by monitoring OD600. OD600 values that were clearly off the growth curve were discarded (less than 1% of values were discarded).
This is mathematically equivalent to drawing a line between (C1,I1) and (C2,I2) and finding the concentration at which that line intersects I=50%. An IC50 was calculated for each set of flasks inoculated from the same preculture. An average IC50 was also calculated.

On to `CCCCO` [Strain 1-butanol, 1-butanol], for which the “1-butanol IC90” value worked out at 2.3%.
